Patent publication US8067432B2, “Liposomal, ring-opened camptothecins with prolonged, site-specific delivery of active drug to solid tumors” (University of Kentucky Research Foundation, priority 2008, dated 2011)

How the values were obtained:
[1] = Lactone/carboxylate equilibrium in aqueous solution at physiological pH; type: physicochemical; conditions: physiological pH (7.4)
[2] = Lactone/carboxylate form and lactone half-life in plasma; type: in vitro ADME, rat
[3] = compared with FDA approved camptothecin analogs (e.g., Camptosar and Hycamtin); cited from earlier work

Row | Compound | Fraction in the carboxylate form [1] | Fraction in lactone (active) form ([2]; in plasma) [%] | half-life ([2]; rat plasma) [min] | Potency in in vitro cytotoxicity assays [3]
1 | CC[C@@]1(O)C(=O)OCc2c1cc1n(c2=O)Cc2cc3ccccc3nc2-1 [camptothecin] | approximately 70% | ~30 | ~40 | –
2 | CC[C@@]1(O)C(=O)OCc2c1cc1n(c2=O)Cc2c-1nc1ccc(O)cc1c2[Si](C)(C)C(C)(C)C [DB-67, 7-t-butyldimethylsilyl-10-hydroxycamptothecin] | – | – | – | at least comparable potency
